The text below walks through data of US10800757B2, “Inhibitors of TRPC6” (Boehringer Ingelheim International GmbH, priority 2017, dated 2020).

What is called IC50 is the concentration needed to halve the response being measured.

The structures appear in SMILES notation.

For the assay, the target named is TRPC6 (Homo sapiens (Human), UniProt Q9Y210). The experiment in a line: High throughput screening assay: fluorescent calcium (Fluo4/AM) assay of TRPC6 channel activation by GSK1702934A in HEK293/TREx cells. In kind it is cell-based. The following applies: HEK293/TREx cells stably transfected with TRPC6; agonist GSK1702934A; 7 concentrations 20 μM to 0.027 μM, triplicate. The source says: This screening assay measures TRPC6 (transient receptor potential cation channel, subfamily C, member 6) ion channel activation via addition either of the commercially available DAG ligand analogue OAG (1-oleoyl-2-acetyl-sn-glycerol) or of the TRPC6 agonist 1-[1-(4,5,6,7,8-pentahydrocyclohepta[2,1-d]thiophen-2-ylcarbonyl)-4-piperidyl]-3-hydrobenzimidazol-2-one (GSK1702934A). The assay utilizes a FLIPR fluorescent calcium sensor 4-(6-Acetoxymethoxy-2,7-difluoro-3-oxo-9-xanthenyl)-4′-methyl-2,2′-(ethylenedioxy)dianiline-N,N,N′,N′-tetraacetic acid tetrakis(acetoxymethyl) ester (Fluo4/AM) […]. Changes (increases) in intracellular membrane calcium concentration potential as measured by the fluorescent signal increase during membrane depolarization provide a measurement of channel activity.
TRPC6, sequence (Q9Y210 whole entry, species assumed): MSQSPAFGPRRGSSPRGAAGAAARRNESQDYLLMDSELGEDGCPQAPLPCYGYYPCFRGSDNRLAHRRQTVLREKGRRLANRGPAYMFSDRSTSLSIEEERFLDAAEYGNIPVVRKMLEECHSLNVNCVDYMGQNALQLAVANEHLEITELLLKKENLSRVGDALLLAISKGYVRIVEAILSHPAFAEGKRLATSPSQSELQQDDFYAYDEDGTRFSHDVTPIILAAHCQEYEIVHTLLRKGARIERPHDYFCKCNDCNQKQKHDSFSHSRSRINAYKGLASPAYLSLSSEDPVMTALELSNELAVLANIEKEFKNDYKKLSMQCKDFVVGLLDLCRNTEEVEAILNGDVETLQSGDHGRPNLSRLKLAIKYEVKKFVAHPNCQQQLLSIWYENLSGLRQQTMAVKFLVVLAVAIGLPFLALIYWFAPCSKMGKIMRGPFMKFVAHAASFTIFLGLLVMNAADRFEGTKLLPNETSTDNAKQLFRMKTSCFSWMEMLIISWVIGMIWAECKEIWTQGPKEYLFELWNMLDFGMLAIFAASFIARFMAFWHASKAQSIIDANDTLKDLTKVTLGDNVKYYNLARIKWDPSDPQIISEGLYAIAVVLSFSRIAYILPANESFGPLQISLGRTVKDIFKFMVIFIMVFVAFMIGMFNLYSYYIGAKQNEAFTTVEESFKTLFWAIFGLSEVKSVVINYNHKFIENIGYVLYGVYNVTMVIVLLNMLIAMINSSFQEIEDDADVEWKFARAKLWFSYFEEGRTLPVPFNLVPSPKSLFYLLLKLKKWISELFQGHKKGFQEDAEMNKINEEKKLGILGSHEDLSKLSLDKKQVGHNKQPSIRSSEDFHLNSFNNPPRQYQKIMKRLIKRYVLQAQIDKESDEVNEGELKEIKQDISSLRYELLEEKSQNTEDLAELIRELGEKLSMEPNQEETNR
The commercially available HEK293/TREx line (Invitrogen) was stably transfected with a TRPC6 construct and screened by conventional calcium imaging to find clones with TRPC6 expression following stimulation with 1 μg/ml tetracycline. These cells were maintained in the growth medium recommended by the manufacturer supplemented with 100 μg/ml hygromycin to promote retention of the TRPC6 construct. After growing to near confluency, cells were plated at a density of ^˜35,000 cells/well in 384 well CellBind plates (Corning) in the presence of 1 μg/ml tetracycline, and allowed to grow for 20-30 hrs. A nearly confluent monolayer resulted. Growth media was removed from the wells and cells were then loaded with […] Fluo4/AM diluted in Ringer's Solution (6.5 g NaCl, 0.42 g KCl, 0.25 g CaCl2) and 0.2 g of sodium bicarbonate; pH 7.4) supplemented with 1% Pluronic F-127 to a final concentration of 0.5 μM and incubated for 60 min, at room temperature. Dye solution was then removed from the cells by inverting plates with a sharp flick, and replaced with 25 μl Ringer's. Following ^˜0.5 hour for recovery from loading, cells were assayed using the Hamamatsu FDSS 6000 system, which permitted illumination at 485 nm. Frames were acquired at a rate of 0.2 Hz. During the assay, the plates were continuously vortexed, with pipette mixing of wells following addition of each reagent. For the screening assay, 26 μl of a diluted compound stock (at 50 μM) was added to each well for 2 minutes following the collection of a short (4 frame) baseline. 13 μl of agonist solution consisting of 125 nM GSK1702934A diluted in high-Ca2+Ringer solution (containing 90 mm Ca2+) was then added to each well, achieving a final concentration of 20 mm Ca2+ and 10 μM test compound. Data was collected for ^˜3 minutes following addition of high Ca2+Ringer. The fluorescent ratio for each well was divided by the initial fluorescent intensity for that well and the overall response was determined by averaging the fluorescent ratio of the last 4 frames acquired during the experiment excepting the final frame. Negative and Positive controls were included on each plate. Negative controls wells consisted of HEK293/TREx TRPC6 cells exposed to assay buffer and agonist solution, but no test compound. Positive control consisted of wells consisted of HEK293/TREx TRPC6 cells exposed to 25 μM 3-[(2-chlorophenoxy)methyl]phenyl piperidyl ketone (Chembridge) diluted in Ringer's solution and agonist solution. These controls defined zero percent and 100 percent block respectively, and intensity of each well was normalized to these values.
Compounds were tested in triplicate at all concentrations. Standard software was used to fit IC50 curves.
In the case of `COc1cc(C(=O)N2CCC(c3ccc(N)nn3)CC2)ncc1OCC1CCC1` [Compound 25, [4-(6-Amino-pyridazin-3-yl)-piperidin-1-yl]-(5-cyclobutylmethoxy-4-methoxy-pyridin-2-yl)-methanone], the IC50 amounted to 70 nM.

As for `COc1cc(C(=O)N2CCC(c3cnc(N)cc3OC)CC2)ncc1OCc1ccc(F)cc1` [Compound 32, (6-Amino-4-methoxy-3′,4′,5′,6′-tetrahydro-2′H-[3,4′]bipyridinyl-1′-yl)-[5-(4-fluoro-benzyloxy)-4-methoxy-pyridin-2-yl]-methanone], the IC50 turned out to be 130 nM. As for `COc1cc(C(=O)N2CCC(c3cnc(N)cc3OC)CC2)ncc1OCC1CC(F)(F)C1` [Compound 45, (6-Amino-4-methoxy-3′,4′,5′,6′-tetrahydro-2′H-[3,4′]bipyridinyl-1′-yl)-[5-(3,3-difluoro-cyclobutylmethoxy)-4-methoxy-pyridin-2-yl]-methanone], the figure is 150 nM; as for `COc1cc(C(=O)N2CCC(c3cnc(N)cc3OC)CC2)ncc1OCC(C)C(F)(F)F` (single isomer, unassigned) [Compound 94a, 4-Methoxy-5-(1-{4-methoxy-5-[3,3,3-trifluoro-2-methylpropoxy]pyridine-2-carbonyl}piperidin-4-yl)-pyridin-2-amine], 343 nM.

For the compound `COc1cc(C(=O)N2CCN(c3ccc(N)nc3)C[C@@H]2CO)ncc1Oc1ccc(F)cc1` [Compound 20, [(R)-4-(6-Amino-pyridin-3-yl)-2-hydroxymethyl-piperazin-1-yl]-[5-(4-fluoro-phenoxy)-4-methoxy-pyridin-2-yl]-methanone], the IC50 came out at 42 nM. The figure for `COc1cc(C(=O)N2CCC(c3cnc(N)cc3C)CC2)ncc1Oc1ccc(F)cc1` [Compound 2, (6-Amino-4-methyl-3′,4′,5′,6′-tetrahydro-2′H-[3,4′]bipyridinyl-1′-yl)-[5-(4-fluoro-phenoxy)-4-methoxy-pyridin-2-yl]-methanone] is under 27 nM. The figure for `COc1cc(C(=O)N2CCC(c3cnc(N)cc3OC)CC2)ncc1OCC1CCC1(F)F` (stereo not drawn) [Compound 95, 5-(1-{5-[(2,2-Difluorocyclobutyl)-methoxy]-4-methoxy-pyridine-2-carbonyl}-piperidin-4-yl)-4-methoxypyridin-2-amine] is 445 nM.

As to `COc1cc(C(=O)N2CCN(c3cnc(N)cc3OC)CC2)ncc1Oc1ccccc1` [Compound 5, [4-(6-Amino-4-methoxy-pyridin-3-yl)-piperazin-1-yl]-(4-methoxy-5-phenoxy-pyridin-2-yl)-methanone], the IC50 stood at 27 nM.

For `COc1cc(C(=O)N2CCN(c3cnc(N)cc3OC)C[C@H]2CO)ncc1Oc1ccccc1` [Compound 71, [(S)-4-(6-Amino-4-methoxy-pyridin-3-yl)-2-hydroxymethyl-piperazin-1-yl]-(4-methoxy-5-phenoxy-pyridin-2-yl)-methanone], the IC50 was 850 nM. Turning to `COc1cc(C(=O)N2C3CCC2CN(c2cnc(N)cc2OC)C3)ncc1Oc1ccccc1` [Compound 51, [3-(6-Amino-4-methoxy-pyridin-3-yl)-3,8-diaza-bicyclo[3.2.1]oct-8-yl]-(4-methoxy-5-phenoxy-pyridin-2-yl)-methanone], the IC50 was determined as 290 nM.

As for `COc1cc(C(=O)N2CCC(c3cnc(N)cc3OC)CC2)ncc1OC1CCCC1` [Compound 35, (6-Amino-4-methoxy-3′,4′,5′,6′-tetrahydro-2′H-[3,4′]bipyridinyl-1′-yl)-(5-cyclopentyloxy-4-methoxy-pyridin-2-yl)-methanone], the IC50 amounted to 94 nM. As for `COc1cc(C(=O)N2CCC(c3cnc(N)cc3OC)CC2)ncc1OCC1CCC1` [Compound 53, (6-Amino-4-methoxy-3′,4′,5′,6′-tetrahydro-2′H-[3,4′]bipyridinyl-1′-yl)-(5-cyclobutylmethoxy-4-methoxy-pyridin-2-yl)-methanone], the figure is 210 nM. The figure for `COc1cc(C(=O)N2CCC(c3ccc(N)nn3)CC2)ncc1Oc1ccc(C(F)(F)F)cc1` [Compound 33, [4-(6-Amino-pyridazin-3-yl)-piperidin-1-yl]-[4-methoxy-5-(4-trifluoromethyl-phenoxy)-pyridin-2-yl]-methanone] is 82 nM.

On to `COc1cc(C(=O)N2CCC(c3cnc(N)cc3OC)CC2)ncc1Oc1ccc(C(F)(F)F)cc1` [Compound 24, (6-Amino-4-methoxy-3′,4′,5′,6′-tetrahydro-2′H-[3,4′]bipyridinyl-1′-yl)-[4-methoxy-5-(4-trifluoromethyl-phenoxy)-pyridin-2-yl]-methanone], for which the IC50 worked out at 67 nM. The figure for `COc1cc(C(=O)N2CCN(c3ccc(N)nc3)C[C@@H]2CO)ncc1Oc1ccccc1` [Compound 81, [(R)-4-(6-Amino-pyridin-3-yl)-2-hydroxymethyl-piperazin-1-yl]-(4-methoxy-5-phenoxy-pyridin-2-yl)-methanone] is 71 nM; for `COc1ccc(Oc2cnc(C(=O)N3CCC(c4ccc(N)nc4)CC3)cc2OC)cc1` [Compound 22, (6-Amino-3′,4′,5′,6′-tetrahydro-2′H-[3,4′]bipyridinyl-1′-yl)-[4-methoxy-5-(4-methoxy-phenoxy)-pyridin-2-yl]-methanone] it is 46 nM; for `COc1ccc(Oc2cnc(C(=O)N3CCC(c4nnc(N)cc4OC)CC3)cc2OC)cc1` [Compound 66, [4-(6-Amino-4-methoxy-pyridazin-3-yl)-piperidin-1-yl]-[4-methoxy-5-(4-methoxy-phenoxy)-pyridin-2-yl]-methanone] it is 840 nM. Consider `COc1cc(C(=O)N2CCC(c3cnc(N)cc3OC)CC2)ncc1O[C@@H](C)C1CC1` [Compound 70, (6-Amino-4-methoxy-3′,4′,5′,6′-tetrahydro-2′H-[3,4′]bipyridinyl-1′-yl)-[5-((S)-1-cyclopropyl-ethoxy)-4-methoxy-pyridin-2-yl]-methanone], for which the IC50 was 640 nM. Turning to `COc1cc(C(=O)N2CCC(c3nnc(N)cc3C)CC2)ncc1Oc1ccc(C(F)(F)F)cc1` [Compound 90, 6-(1-{4-Methoxy-5-[4-(trifluoromethyl)phenoxy]pyridine-2-carbonyl}piperidin-4-yl)-5-methylpyridazin-3-amine trifluoroacetic acid], the IC50 is 364 nM. Consider `CCCOc1cc(N)ncc1C1CCN(C(=O)c2cc(OC)c(Oc3ccccc3)cn2)CC1` [Compound 86, (6-Amino-4-propoxy-3′,4′,5′,6′-tetrahydro-2′H-[3,4′]bipyridinyl-1′-yl)-[5-(phenoxy)-4-methoxy-pyridin-2-yl]-methanone], for which the IC50 was 350 nM. The figure for `COc1cc(C(=O)N2CCC(c3ccc(N)nn3)CC2)ncc1OCC(C)(C)C` [Compound 74, [4-(6-Amino-pyridazin-3-yl)-piperidin-1-yl]-[5-(2,2-dimethyl-propoxy)-4-methoxy-pyridin-2-yl]-methanone] is 1400 nM. In the case of `COc1cc(C(=O)N2CCC(c3ccc(N)nn3)CC2)ncc1OCc1ccc(F)cc1` [Compound 41, [4-(6-Amino-pyridazin-3-yl)-piperidin-1-yl]-[5-(4-fluoro-benzyloxy)-4-methoxy-pyridin-2-yl]-methanone], the IC50 stood at 180 nM.

As to `COc1cc(C(=O)N2CCC(c3ccc(N)nc3)CC2)ncc1Oc1ccc(F)cc1` [Compound 14, (6-Amino-3′,4′,5′,6′-tetrahydro-2′H-[3,4′]bipyridinyl-1′-yl)-[5-(4-fluoro-phenoxy)-4-methoxy-pyridin-2-yl]-methanone], the IC50 came out at 27 nM. As for `COc1cc(C(=O)N2CCC(c3cnc(N)cc3OC)CC2)ncc1O[C@H](C)C1CC1` [Compound 77, (6-Amino-4-methoxy-3′,4′,5′,6′-tetrahydro-2′H-[3,4′]bipyridinyl-1′-yl)-[5-((R)-1-cyclopropyl-ethoxy)-4-methoxy-pyridin-2-yl]-methanone], the figure is 2200 nM.
